Values quoted from earlier work, collected in patent US20210077514A1, “Nutraceutical Composition for Improving Overall Health” (priority 2019, published 2021).
Read-outs that look alike come from different tables or passages of the source. One block for each compound: values may come before it.

Legend:
[1] = aged mice
[2] = not given; remark: listed apart in the source
[3] = tested on: photoreceptor; conditions: in vivo
[4] = not given; remark: listed apart in the source
[5] = aged mice, one week's treatment
[6] = FXN-KO mouse
[7] = in vivo
[8] = tested on: brain cell
[9] = AD-model mice
[10] = young healthy adult female human subjects
[11] = compared to canthaxanthin and β-carotene
[12] = tested on: superoxide dismutase, thioredoxin reductase, paraoxonase; conditions: oxidative-induced rabbits, diet supplement
[13] = 0.08% astaxanthin fed, vs control group
[14] = aging mice, long-term treatment
[15] = spontaneously hypertensive corpulent rats; mice on high fat plus high fructose diets
[16] = tested on: lipid peroxidation; conditions: ethanol induced gastric ulcer rats and skin cancer rats; astaxanthin and its esters
[17] = not given; remark: listed apart in the source
[18] = diabetic mice vs control group
[19] = from the liver into the bile
[20] = chronic heart failure patients
[21] = patients with T2DM
[22] = tested on: adipocytes; conditions: mouse, in vivo
[23] = tested on: senescent cells; conditions: H2O2-induced, via activation of AMPK pathway
[24] = in vivo; remark: listed apart in the source
[25] = tested on: HepG2 cells; conditions: HepG2 cells and primary hepatocytes
[26] = tested on: MCF-7 breast cancer cells
[27] = not given; remark: listed apart in the source
[28] = mouse model
[29] = tested on: nematodes
[30] = after 3 years
[31] = 850 mg twice daily, mean follow-up ~3 years
[32] = tested on: diploid fibroblasts and mesenchymal stem cells
[33] = type 2 diabetes and mild to moderate depression
[34] = 8-10 years after therapy
[35] = tested on: glial cells
[36] = tested on: leukaemia cells

SMILES: NC(=O)c1ccc[n+]([C@@H]2O[C@H](COP(=O)([O-])O)[C@@H](O)[C@H]2O)c1 [Nicotinamide Mononucleotide, nicotinamide mononucleotide]
aortic stiffness [1]: normalizing the aortic stiffness | intolerance of glucose (in vivo): reversal of the intolerance of glucose | levels of NAD+ (liver and muscle): significantly increased | homeostasis of mitochondria and biochemical markers of muscle-health ([2]; 22 months old mice, to level of six months old mice): restore the homeostasis of mitochondria | age-related physiological declines ([2]; old mice): reduce the age-related physiological declines | degeneration of photoreceptor [3]: prevent degeneration of photoreceptor | impaired tolerance of glucose ([4]; only one dose): sufficient in normalizing the impaired tolerance of the glucose | levels of NAD+ ([4]; over sixty minutes): significant rises within the levels of NAD+ | cells after DNA damage repair [5]: indistinguishable from the cells of the young mice | cardiac function [6]: restored near the normal levels | NAD+ levels within the heart [7]: increase the NAD+ levels within the heart | protection of heart from I/R injuries [7]: protect the heart from injuries of I/R | death rate of brain cell [8]: lower the death rate of brain cell | cognition [9]: restore cognition within AD-model mice

SMILES: CC1=C(/C=C/C(C)=C/C=C/C(C)=C/C=C/C=C(C)/C=C/C=C(C)/C=C/C2=C(C)C(=O)[C@@H](O)CC2(C)C)C(C)(C)C[C@H](O)C1=O [astaxanthin]
DNA oxidative damage biomarker [10]: reduced the DNA oxidative damage biomarker | antitumor activity [11]: significant antitumor activity | paraoxonase activity in serum [12]: inhibited | superoxide dismutase and thioredoxin reductase activity in serum [12]: enhanced activity of superoxide dismutase and thioredoxin reductase | heart mitochondrial membrane potential and contractility index [13]: higher heart mitochondrial membrane potential and contractility index | age-related oxidative stress and inflammatory response [14]: prevented the accumulation of age-related oxidative stress and inflammatory response | insulin sensitivity [15]: Improved insulin sensitivity | anti-lipid peroxidation activity [16]: 80% | activity of natural killer cells ([17]; eight week supplementation): improved activity of natural killer cells | blood levels of astaxanthin ([17]; in vivo): increased blood levels of astaxanthin | urinary albumin level [18]: significantly lower than the control group

SMILES: COc1ccc2cc3[n+](cc2c1OC)CCc1cc2c(cc1-3)OCO2 [berberine]
cholesterol excretion [19]: increases cholesterol excretion from the liver into the bile | frequency and complexity of ventricular premature complexes [20]: decreased the frequency and complexity of ventricular premature complexes | left ventricular ejection fraction [20]: increased the left ventricular ejection fraction | alanine and aspartate transaminase levels [21]: reduces alanine and aspartate transaminase levels | adipocytes [22]: shrunk adipocytes | development of senescence [23]: significantly prevented the development of senescence | serum cholesterol, triglycerides and LDL-C [24]: reduced serum cholesterol, triglycerides and LDL-C | cholesterol and triglyceride synthesis [25]: inhibit cholesterol and triglyceride synthesis | proliferation of MCF-7 breast cancer cells [26]: inhibits the proliferation

cognitive function, impact of long-term use [34]: did not show negative impact
SMILES: CN(C)C(=N)N=C(N)N [metformin]
reduction of likelihood of CVD ([27]; otherwise healthy individuals): 6% | reduction of likelihood of CVD ([27]; those at high cardiovascular risk): 48% | reduction of likelihood of CVD ([27]; those at risk of frailty): 18% | lifespan and health span [28]: extends both lifespan and health span | lifespan [29]: extends the lifespan of nematodes | body weight, LDL-cholesterol, atherosclerosis progression [30]: reductions in body weight, LDL-cholesterol | carotid artery intima-media thickness (primary outcome) [30]: no difference in the primary outcome | reduction of incidence of T2DM compared to placebo [31]: 31% | aging in human cells ([32]; chronic low-dose treatment): delays aging in human cells | expression of GPx7 ([32]; low-dose treatment, by activating Nrf2): upregulates the expression of endoplasmic reticulum-localized GPx7 | depressive symptoms [33]: improved depressive symptoms

SMILES: Oc1ccc(C=Cc2cc(O)cc(O)c2)cc1 [resveratrol]
uptake of glutamate [35]: increase the uptake of glutamate | growth rate of leukaemia cells [36]: stop the growth rate of leukaemia cells
